Test results: patent publication EP3426036B1, “CROP ENHANCEMENT” (priority 2016, dated 2017)

Experiments:
[1] = system: detached wheat (Triticum aestivum var. Arina) leaves; assay: Detached leaf transpiration and photosynthesis analysis; format: in vivo, Triticum aestivum L.
Experimental: Winter wheat (Triticum aestivum L.) of the variety Arina was used for the detached leaf transpiration assay. Plants were grown under optimum conditions in growth chambers until BBCH 12. The seedlings were dark-adapted for one hour; the second leaf was cut under water and directly placed into a 1.5 mL test-tube filled with 1 mL of compound I solution. The solution was prepared by dissolving compound I in dimethyl sulfoxide (DMSO) and diluting in water to the final concentrations of 3, 10, 50 and 100 mg L^-1. After weighing the initial weight of the leaf-tube-system, the leaves were placed in growth chambers at 25°C, 60% relative humidity and a light intensity of 150 µmol m^-2 s^-1 at 14 hours photoperiod. Transpiration was quantified by measuring the weight of the leaf-tube-system after 6 and 24 hours. Tubes without leaves solely filled with water were used to correct for evaporation. At 6 hours, the operating quantum efficiency of photosystem II (φPSII), which is a proxy of the photosynthetic activity, was monitored under growth conditions from the middle of the leaf using a PAM-2500 fluorometer (Walz, Effeltrich, Germany). The experimental design was a randomized complete block design with five replications for each treatment; one experimental unit was one leaf per test-tube. Statistical analysis (ANOVA) was done with Agstat 1.6 / ACSAP 4.29.

[2] = system: spring wheat (Triticum aestivum L.) of the variety Taifun; assay: Whole plant transpiration analysis; format: in vivo
Experimental: For whole plant transpiration analysis, spring wheat (Triticum aestivum L.) of the variety Taifun was grown under pest free conditions in 1.2 L growth columns filled with a field soil (sandy loam). Plants were daily watered to a target soil water content of 0.25 g H2O g^-1 dry soil. Plant growth and transpiration analysis was in growth chambers at 25/18 °C (day/night), 60 % relative humidity and a light intensity of 600 µmol m^-2 s^-1 at 14 hours of photoperiod. Transpiration was measured by monitoring the weight of the plant-pot-system with an automated weighing system. Application of compound I formulated as EC 100 at 75 g ha^-1 was done with a track sprayer at 200 L ha^-1 when plants were at BBCH 23. Transpiration was monitored at optimal watering for seven days after application, afterwards watering was stopped. The experimental layout was a randomized complete block design with nine replications per treatment; one experimental unit was two plants per pot. The transpiration before treatment was used as covariant for statistical analysis (ANOVA, Agstat 1.6 / ACSAP 4.29).

[3] = system: Durum wheat; assay: Crop enhancement effect on wheat under drought conditions in the field (Example 1c); format: in vivo; conditions: for Protein content / Grain Yield / TGW / No. of grains per ear: 75.0 g a.i/ha at BBCH GS 39; for Grain Yield / TGW: adjusted to 10% standard moisture; for No. of grains per ear: average of 10 ears per plot
Experimental: Durum wheat (plot size 24m^2) was treated with a single application at BBCH GS 39 (flag leaf stage) with the compound of formula I at a rate of 75.0 g a.i/ha. The plants were split into non-irrigated (only rainfed) and irrigated with 50% of evapotranspiration compensation. Untreated check plants were also included in both water supply conditions. These water supply conditions were maintained during the reproductive stages of plant growth (BBCH 55-73). The trial was carried out with six replicates.
At the end of the trial, a 12m^2 plot was harvested from each of four replicates for each water supply condition. […]
In addition to the above factors, the Normalised Difference Vegetation Index (NDVI) was also assessed. This is an estimate of the photosynthetically absorbed radiation over the crop surfaces and allows an estimate of the Leaf Area Index in order to track plant growth and vigour. The NDVI was measured several times during the trial with two handheld crop devices with active light source optical sensors: GreenSeeker HCS-100 (7 measurements) and RapidSCAN CS-45 (5 measurements).

[4] = system: Spring wheat; assay: Crop enhancement effect on wheat under drought conditions in the field (Example 1d); format: in vivo; conditions: non-irrigated; for Grain Yield / TGW: adjusted to 10% standard moisture; for No. of grains per ear: average of 20 ears per plot
Experimental: Spring wheat (plot size 30m^2) was treated with a single application at BBCH GS 41 (early boot stage) or 49 (first awns visible) with the compound of formula I at a rate of 75.0 g a.i/ha. […] This water supply condition was maintained during the reproductive stages of plant growth (BBCH 55-89). The trial was carried out with six replicates. At the end of the trial, a 20m^2 plot was harvested from each of five replicates. […]

[5] = system: Soybean plants; assay: Crop enhancement effect on soybean under drought conditions, yield analysis (Example 2a); format: in vivo; conditions: drought until day 65
Experimental: Soybean plants were grown in pots. The plants were treated at R1 (36 days after sewing) or R3 (44 days after sewing) with the compound of formula I at 0.75 l/ha. An untreated control plant was also included. After treatment, the plants were subjected to drought conditions until the end of the trial at day 65. Five replicates of the control and each treatment were harvested for analysis of yield and enzymatic activity. […]

[6] = 75.0 g a.i/ha applied at BBCH 41
[7] = 75.0 g a.i/ha applied at BBCH 49

## Cn1cc(C(=O)Nc2cccc3c2C2CCC3C2=C(Cl)Cl)c(C(F)F)n1 (stereo not drawn) [Compound I, benzovindiflupyr]
[1]; 3, 10, 50 and 100 mg L^-1, 0 to 24 hours
  leaf transpiration: significantly decreased leaf transpiration in a dose-dependent manner
[1]; 3 and 10 mg L^-1, first 6 hours
  leaf transpiration: decreased only little
[1]; 50 and 100 mg L^-1, within 6 hours of treatment
  leaf transpiration: clearly visible
[1]; at 6 hours, 3 to 100 mg L^-1
  operating quantum efficiency of photosystem II (φPSII): did not show an impact
[2]; EC 100 at 75 g ha^-1
  impact on biomass accumulation: no negative impact
[2]; EC 100 at 75 g ha^-1, BBCH 23, within one day, constant soil water content
  transpiration decrease compared to untreated control plants: about 8%
[2]; EC 100 at 75 g ha^-1, end of the experiment, control plants same value
  shoot dry weight: 6.3 ± 0.4 g plant^-1
[2]; EC 100 at 75 g ha^-1, irrigation withheld eight days after application
  transpiration rate during soil drying compared to untreated control plants: transiently higher transpiration rate
[2]; EC 100 at 75 g ha^-1, optimal watering
  duration of transpiration decrease: consistent for at least seven days
[3]; 50% ET compensation
  Protein content: 15.45%
  Grain Yield: 60.60 dT/Ha
  TGW: 45.78 g
  No. of grains per ear: 42.08
[3]; GreenSeeker HCS-100, BBCH 69(1), 50% ET compensation
  Normalised Difference Vegetation Index (NDVI): 0.820
[3]; GreenSeeker HCS-100, BBCH 69(1), non-irrigated
  Normalised Difference Vegetation Index (NDVI): 0.788
[3]; GreenSeeker HCS-100, BBCH 69(2), 50% ET compensation
  Normalised Difference Vegetation Index (NDVI): 0.787
[3]; GreenSeeker HCS-100, BBCH 69(2), non-irrigated
  Normalised Difference Vegetation Index (NDVI): 0.747
[3]; GreenSeeker HCS-100, BBCH 73, 50% ET compensation
  Normalised Difference Vegetation Index (NDVI): 0.750
[3]; GreenSeeker HCS-100, BBCH 73, non-irrigated
  Normalised Difference Vegetation Index (NDVI): 0.672
[3]; GreenSeeker HCS-100, BBCH 75-83, 50% ET compensation
  Normalised Difference Vegetation Index (NDVI): 0.705
[3]; GreenSeeker HCS-100, BBCH 75-83, non-irrigated
  Normalised Difference Vegetation Index (NDVI): 0.557
[3]; GreenSeeker HCS-100, BBCH 83-85, 50% ET compensation
  Normalised Difference Vegetation Index (NDVI): 0.673
[3]; GreenSeeker HCS-100, BBCH 83-85, non-irrigated
  Normalised Difference Vegetation Index (NDVI): 0.468
[3]; GreenSeeker HCS-100, BBCH 85, 50% ET compensation
  Normalised Difference Vegetation Index (NDVI): 0.572
[3]; GreenSeeker HCS-100, BBCH 85, non-irrigated
  Normalised Difference Vegetation Index (NDVI): 0.375
[3]; GreenSeeker HCS-100, BBCH 87, 50% ET compensation
  Normalised Difference Vegetation Index (NDVI): 0.464
[3]; GreenSeeker HCS-100, BBCH 87, non-irrigated
  Normalised Difference Vegetation Index (NDVI): 0.185
[3]; RapidSCAN CS-45, BBCH 69, 50% ET compensation
  Normalised Difference Vegetation Index (NDVI): 0.663
[3]; RapidSCAN CS-45, BBCH 69, non-irrigated
  Normalised Difference Vegetation Index (NDVI): 0.592
[3]; RapidSCAN CS-45, BBCH 73, 50% ET compensation
  Normalised Difference Vegetation Index (NDVI): 0.657
[3]; RapidSCAN CS-45, BBCH 73, non-irrigated
  Normalised Difference Vegetation Index (NDVI): 0.625
[3]; RapidSCAN CS-45, BBCH 83-85, 50% ET compensation
  Normalised Difference Vegetation Index (NDVI): 0.572
[3]; RapidSCAN CS-45, BBCH 83-85, non-irrigated
  Normalised Difference Vegetation Index (NDVI): 0.393
[3]; RapidSCAN CS-45, BBCH 85, 50% ET compensation
  Normalised Difference Vegetation Index (NDVI): 0.538
[3]; RapidSCAN CS-45, BBCH 85, non-irrigated
  Normalised Difference Vegetation Index (NDVI): 0.320
[3]; RapidSCAN CS-45, BBCH 87, 50% ET compensation
  Normalised Difference Vegetation Index (NDVI): 0.204
[3]; RapidSCAN CS-45, BBCH 87, non-irrigated
  Normalised Difference Vegetation Index (NDVI): 0.083
[3]; non-irrigated
  Protein content: 12.68%
  Grain Yield: 57.73 dT/Ha
  TGW: 51.16 g
  No. of grains per ear: 37.88
[4]; [6]
  Hectolitre weight: 85.68 kg/Hl
  Grain Yield: 48.00 dT/Ha
  TGW: 41.56 g
  No. of grains per ear: 50.80
[4]; [7]
  Hectolitre weight: 84.96 kg/Hl
  Grain Yield: 42.30 dT/Ha
  TGW: 41.46 g
  No. of grains per ear: 46.70
[5]; 0.75 l/ha @ R1
  Dry weight of pods: 114.8 % of control
[5]; 0.75 l/ha @ R3
  Dry weight of pods: 122.7 % of control
